From patent publication US11572399B2, “Long-acting GIP peptide analogues” (University of Copenhagen, priority 2017, dated 2023)
Peptide text beside a SMILES is read from it. * marks the point of attachment. Lauroyl = CCCCCCCCCCCC(=O)*

Target: T1, human GIP receptor (Homo sapiens, UniProt P48546)
T1 construct: host or cells: COS-7, transient transfection (calcium phosphate), cDNA in pCMV-Script
T1 sequence (P48546 22-466): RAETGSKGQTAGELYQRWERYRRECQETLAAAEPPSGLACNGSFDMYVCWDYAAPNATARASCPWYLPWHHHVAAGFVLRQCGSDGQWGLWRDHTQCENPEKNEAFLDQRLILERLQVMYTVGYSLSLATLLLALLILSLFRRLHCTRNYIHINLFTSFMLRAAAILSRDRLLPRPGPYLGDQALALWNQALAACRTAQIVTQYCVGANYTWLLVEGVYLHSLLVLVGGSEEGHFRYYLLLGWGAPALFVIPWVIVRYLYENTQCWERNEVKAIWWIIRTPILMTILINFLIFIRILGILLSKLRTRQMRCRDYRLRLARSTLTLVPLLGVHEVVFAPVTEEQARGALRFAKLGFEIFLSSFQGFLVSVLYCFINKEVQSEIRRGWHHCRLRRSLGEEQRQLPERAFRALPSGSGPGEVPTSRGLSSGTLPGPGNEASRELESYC
Test: cAMP accumulation assay, agonism (ligand alone)
Type: cell-based
Settings: COS-7 cells, Table 1; for Emax: COS-7, intrinsic cAMP activity; for EC50: read-out: cAMP agonism nM (EC50)
Experimental: COS-7 cells were cultured at 10% CO2 and 37° C. in Dulbecco's modified Eagle's medium 1885 supplemented with 10% fetal bovine serum, 2 mM glutamine, 180 units/ml penicillin, and 45 µg/ml streptomycin. Transient transfection of the COS-7 cells for cAMP accumulation and competition binding was performed using the calcium phosphate precipitation method with the addition of chloroquine^46-47.
Transient transfected COS-7 cells expressing the human GIP receptor were seeded in white 96-well plates with a density of 3.5*10^4/well. The day after, the cells were washed twice with Hepes buffered saline (HBS) buffer and incubated with HBS and 1 mM 3-isobutyl-1-methylxanthine (IBMX) for 30 min at 37° C. To test for agonistic properties, ligands were added and incubated for 30 min at 37° C. In order to test for antagonistic properties, the cells were preincubated with the antagonists for 10 min prior to the addition of the agonist and subsequent incubated for 20 additional min. The HitHunter™ cAMP XS assay (DiscoveRx) was carried out according to the manufacturer's instructions.
IC50, EC50, and Ki values were determined by nonlinear regression. These were carried out with the GraphPad Prism 6.0 software (GraphPad, San Diego, Calif., USA) and Microsoft Excel™. Ki values were based on the formula for one class of binding sites in homologous competition binding studies and the Cheng Prussoffs formula, respectively (DeBlasi et al., 1989). To determine the HSA binding potential, the fold change in affinity (as determined by IC50) was calculated as IC50 (plus HSA)/IC50 (minus HSA).

CCCCCCCCCCCCCCCC(=O)NCCCC[C@H](NC(=O)[C@H](CCC(N)=O)NC(=O)[C@H](C)NC(=O)[C@H](CC(C)C)NC(=O)[C@H](CC(C)C)NC(=O)[C@H](Cc1c[nH]c2ccccc12)NC(=O)[C@H](CC(N)=O)NC(=O)[C@@H](NC(=O)[C@H](Cc1ccccc1)NC(=O)[C@H](CC(=O)O)NC(=O)[C@H](CCC(N)=O)NC(=O)[C@H](CCC(N)=O)NC(=O)[C@H](Cc1c[nH]cn1)NC(=O)[C@@H](NC(=O)[C@H](CCCCN)NC(=O)[C@H](CC(=O)O)NC(=O)[C@H](CCSC)NC(=O)[C@H](C)NC(=O)[C@@H](NC(=O)[C@H](CO)NC(=O)[C@H](Cc1ccc(O)cc1)NC(=O)[C@H](CC(=O)O)NC(=O)[C@H](CO)NC(=O)[C@@H](NC(=O)[C@H](Cc1ccccc1)NC(=O)[C@@H](NC(=O)CNC(=O)[C@@H](N)CCC(=O)O)[C@@H](C)O)[C@@H](C)CC)[C@@H](C)CC)[C@@H](C)CC)C(C)C)C(N)=O [AT106, [hGIP(3-30)NH2—C16/30]]
Emax: 64%

CCCCCCCCCCCCCC(=O)NCCCC[C@H](NC(=O)[C@H](CCC(N)=O)NC(=O)[C@H](C)NC(=O)[C@H](CC(C)C)NC(=O)[C@H](CC(C)C)NC(=O)[C@H](Cc1c[nH]c2ccccc12)NC(=O)[C@H](CC(N)=O)NC(=O)[C@@H](NC(=O)[C@H](Cc1ccccc1)NC(=O)[C@H](CC(=O)O)NC(=O)[C@H](CCC(N)=O)NC(=O)[C@H](CCC(N)=O)NC(=O)[C@H](Cc1c[nH]cn1)NC(=O)[C@@H](NC(=O)[C@H](CCCCN)NC(=O)[C@H](CC(=O)O)NC(=O)[C@H](CCSC)NC(=O)[C@H](C)NC(=O)[C@@H](NC(=O)[C@H](CO)NC(=O)[C@H](Cc1ccc(O)cc1)NC(=O)[C@H](CC(=O)O)NC(=O)[C@H](CO)NC(=O)[C@@H](NC(=O)[C@H](Cc1ccccc1)NC(=O)[C@@H](NC(=O)CNC(=O)[C@@H](N)CCC(=O)O)[C@@H](C)O)[C@@H](C)CC)[C@@H](C)CC)[C@@H](C)CC)C(C)C)C(N)=O [AT112, [hGIP(3-30)NH2—C14/30]]
Emax: 29%

CCCCCCCCCCCCCCCCCC(=O)NCCCC[C@H](NC(=O)[C@H](CCC(N)=O)NC(=O)[C@H](C)NC(=O)[C@H](CC(C)C)NC(=O)[C@H](CC(C)C)NC(=O)[C@H](Cc1c[nH]c2ccccc12)NC(=O)[C@H](CC(N)=O)NC(=O)[C@@H](NC(=O)[C@H](Cc1ccccc1)NC(=O)[C@H](CC(=O)O)NC(=O)[C@H](CCC(N)=O)NC(=O)[C@H](CCC(N)=O)NC(=O)[C@H](Cc1c[nH]cn1)NC(=O)[C@@H](NC(=O)[C@H](CCCCN)NC(=O)[C@H](CC(=O)O)NC(=O)[C@H](CCSC)NC(=O)[C@H](C)NC(=O)[C@@H](NC(=O)[C@H](CO)NC(=O)[C@H](Cc1ccc(O)cc1)NC(=O)[C@H](CC(=O)O)NC(=O)[C@H](CO)NC(=O)[C@@H](NC(=O)[C@H](Cc1ccccc1)NC(=O)[C@@H](NC(=O)CNC(=O)[C@@H](N)CCC(=O)O)[C@@H](C)O)[C@@H](C)CC)[C@@H](C)CC)[C@@H](C)CC)C(C)C)C(N)=O [AT115, [hGIP(3-30)NH2—C18/30]]
EC50: 134 nM

CCCCCCCCCCCC(=O)NCCCC[C@H](NC(=O)[C@H](CCC(N)=O)NC(=O)[C@H](C)NC(=O)[C@H](CC(C)C)NC(=O)[C@H](CC(C)C)NC(=O)[C@H](Cc1c[nH]c2ccccc12)NC(=O)[C@H](CC(N)=O)NC(=O)[C@@H](NC(=O)[C@H](Cc1ccccc1)NC(=O)[C@H](CC(=O)O)NC(=O)[C@H](CCC(N)=O)NC(=O)[C@H](CCC(N)=O)NC(=O)[C@H](Cc1c[nH]cn1)NC(=O)[C@@H](NC(=O)[C@H](CCCCN)NC(=O)[C@H](CC(=O)O)NC(=O)[C@H](CCSC)NC(=O)[C@H](C)NC(=O)[C@@H](NC(=O)[C@H](CO)NC(=O)[C@H](Cc1ccc(O)cc1)NC(=O)[C@H](CC(=O)O)NC(=O)[C@H](CO)NC(=O)[C@@H](NC(=O)[C@H](Cc1ccccc1)NC(=O)[C@@H](N)[C@@H](C)O)[C@@H](C)CC)[C@@H](C)CC)[C@@H](C)CC)C(C)C)C(N)=O [AT120, [hGIP(5-30)NH2—C12/30]]
Emax: 0%

CCCCCCCCCCCCCC(=O)NCCCC[C@H](NC(=O)[C@H](CCC(N)=O)NC(=O)[C@H](C)NC(=O)[C@H](CC(C)C)NC(=O)[C@H](CC(C)C)NC(=O)[C@H](Cc1c[nH]c2ccccc12)NC(=O)[C@H](CC(N)=O)NC(=O)[C@@H](NC(=O)[C@H](Cc1ccccc1)NC(=O)[C@H](CC(=O)O)NC(=O)[C@H](CCC(N)=O)NC(=O)[C@H](CCC(N)=O)NC(=O)[C@H](Cc1c[nH]cn1)NC(=O)[C@@H](NC(=O)[C@H](CCCCN)NC(=O)[C@H](CC(=O)O)NC(=O)[C@H](CCSC)NC(=O)[C@H](C)NC(=O)[C@@H](NC(=O)[C@H](CO)NC(=O)[C@H](Cc1ccc(O)cc1)NC(=O)[C@H](CC(=O)O)NC(=O)[C@H](CO)NC(=O)[C@@H](NC(=O)[C@H](Cc1ccccc1)NC(=O)[C@@H](N)[C@@H](C)O)[C@@H](C)CC)[C@@H](C)CC)[C@@H](C)CC)C(C)C)C(N)=O [AT123, [hGIP(5-30)NH2—C14/30]]
Emax: 64%

CCCCCCCCCCCCCCCC(=O)NCCCC[C@H](NC(=O)[C@H](CCC(N)=O)NC(=O)[C@H](C)NC(=O)[C@H](CC(C)C)NC(=O)[C@H](CC(C)C)NC(=O)[C@H](Cc1c[nH]c2ccccc12)NC(=O)[C@H](CC(N)=O)NC(=O)[C@@H](NC(=O)[C@H](Cc1ccccc1)NC(=O)[C@H](CC(=O)O)NC(=O)[C@H](CCC(N)=O)NC(=O)[C@H](CCC(N)=O)NC(=O)[C@H](Cc1c[nH]cn1)NC(=O)[C@@H](NC(=O)[C@H](CCCCN)NC(=O)[C@H](CC(=O)O)NC(=O)[C@H](CCSC)NC(=O)[C@H](C)NC(=O)[C@@H](NC(=O)[C@H](CO)NC(=O)[C@H](Cc1ccc(O)cc1)NC(=O)[C@H](CC(=O)O)NC(=O)[C@H](CO)NC(=O)[C@@H](NC(=O)[C@H](Cc1ccccc1)NC(=O)[C@@H](N)[C@@H](C)O)[C@@H](C)CC)[C@@H](C)CC)[C@@H](C)CC)C(C)C)C(N)=O [AT126, [hGIP(5-30)NH2—C16/30]]
Emax: 75%
EC50: 316 nM

CCCCCCCCCCCC(=O)NCCCC[C@H](NC(=O)[C@H](CCC(N)=O)NC(=O)[C@H](C)NC(=O)[C@H](CC(C)C)NC(=O)[C@H](CC(C)C)NC(=O)[C@H](Cc1c[nH]c2ccccc12)NC(=O)[C@H](CC(N)=O)NC(=O)[C@@H](NC(=O)[C@H](Cc1ccccc1)NC(=O)[C@H](CC(=O)O)NC(=O)[C@H](CCC(N)=O)NC(=O)[C@H](CCC(N)=O)NC(=O)[C@H](C)NC(=O)[C@@H](NC(=O)[C@H](CCCCN)NC(=O)[C@H](CCC(=O)O)NC(=O)[C@H](CCSC)NC(=O)[C@H](C)NC(=O)[C@@H](NC(=O)[C@H](CO)NC(=O)[C@H](Cc1ccc(O)cc1)NC(=O)[C@H](CC(=O)O)NC(=O)[C@H](CO)NC(=O)[C@@H](NC(=O)[C@H](Cc1ccccc1)NC(=O)[C@@H](NC(=O)CNC(=O)[C@@H](N)CCC(=O)O)[C@@H](C)O)[C@@H](C)CC)[C@@H](C)CC)[C@@H](C)CC)C(C)C)C(N)=O [AT130, [hGIP(3-30)NH2[D15E; H18A]-C12/30]] (H-EGTFISDYSIAMEKIAQQDFVNWLLAQK(Lauroyl)-NH2; N-terminus assumed)
Emax: 49%
